Assays:
[1] = test system: P388 mouse leukemia cells; test: Life-span-prolonging (anti-tumor) effect on mice subcutaneously inoculated with P388 mouse leukemia cells; type: in vivo, mouse (CDF1 female); settings: 0.1 mg/kg i.v. on days 1, 5 and 9; for Survival days ave. ± s. d.: all marked ** (p < 0.01); for T/C (%): survival vs vehicle
Method: i) Anti-tumor effect of the compound of the present invention on mice subcutaneously inoculated with P388 mouse leukemia cells.
Experiment was performed with CDF1 female mice (6 weeks) purchased from NIPPON SLC K.K., which were divided into groups consisting of 5 animals. […]. In this connection, lentinan and picibanil were administered intravenously on days 1, 3, 5, 7 and 9 after implantation, and sizofilan was administered subcutaneously on days 1 through 9. Statistical analysis was performed according to the Mann-Whiteney test.

B16 mouse melanoma cells = test: Tumor growth inhibition in mice subcutaneously inoculated with B16 mouse melanoma cells; type: in vivo, mouse (BDF1 female); settings: 0.1 mg/kg i.v. days 1, 5, 9; maximum during 20 days
Method: ii) Anti-tumor effect of the compound according to the present invention on mice subcutaneously inoculated with B16 mouse melanoma cells.
Experiment was performed with BDF1 female mice (6 weeks) purchased from NIPPON SLC K.K., which were divided into groups consisting of 6 animals. […]. The subcutaneous tumor volumes [(length×width×height)/2] were measured on days 8, 12, 16 and 20 after implantation to determine the tumor growth inhibiting rate (TGIR) of each sample. TGIR was calculated from the following formula: […]
wherein C: tumor volume in the control group, and
T: tumor volume in the sample adminitered groups.
In this connection, Compounds 1-6 and 7-9 were tested in the same time, respectively.

mouse bone marrow cells = test: In vitro mouse bone marrow cell-proliferation-promoting effect (3H-TdR uptake); type: cell-based, mouse (BDF1 female); settings: 4 days, 5760 min
Method: In vitro mouse bone marrow cell-proliferation-promoting effect of the present compound
Experiment was performed with BDF1 female mice (6 weeks old) purchased from NIPPON SLC K.K. Bone marrow cells were removed from the femoral bone of mice by the conventional manner, floated on 10% FCS RPMI 1640, layered over Lympholite M, and centrifuged to give a monocyte fraction. 1×10^6 cells/ml of the monocyte fraction was suspended in 10% FCS RPMI 1640. The cell suspension (100 μl/well) and a vehicle or sample (10 μl/well) which was prepared so as to have a final level shown in Table 2 were added into a wells of round-bottomed 96 well plate, and cultured under the condition of 5% CO2 at 37° C. for 4 days. 0.5 μCi/well of ^3 H-thymidine (^3 H-TdR) was added. After 6 hours, the cells were harvested, and the amount of ^3 H-TdR uptaken into nucleus was measured by a liquid scintillation counter. The ratio of the uptake of ^3 H-TdR in the sample group to that in the vehicle group was calculated and used as the activation rate for promoting in vitro mouse bone marrow cell growth.

[2] = test system: mixed lymphocyte culture reaction (spleen cells of C57BL/6 and BALB/C mice); test: Mixed lymphocyte culture reaction (MLR); type: cell-based, mouse (C57BL/6 stimulator, BALB/C responder); settings: 42 hours, 2520 min
Method: ii) Mixed lymphocyte culture reaction (MLR) of the compounds of the present invention
Spleen cells were prepared from C57BL/6 mice and treated with 50 μg/ml of mitomycin C for 30 minutes. The treated cells were used as stimulator cells, and the spleen cells of BALB/C mice as responder cells. 2×10^6 cells/ml of the both spleen cells were suspended in 10% FCS RPMI1640 as a culture medium. The above-described cells (50 μl/well) and a sample (10 μl/well) were added into wells of a round-bottomed 96 well plate, and cultured under the condition of 5% CO2 at 37° C. for 42 hours. 0.5 μCi/well of ^3 H-thymidine (^3 H-TdR) was added. After 8 hours, the cells were harvested, and the amount of uptaken ^3 H-TdR was measured by a liquid scintillation counter to calculate the ratio (%) of the uptake of ^3 H-TdR in the sample group to that in the vehicle group as the MLR activating rate.

mouse splenic lymphocyte = test: In vitro mouse splenic lymphocyte-proliferation-stimulating effect (3H-TdR uptake); type: cell-based, mouse (BDF1 female); settings: 2 days, 2880 min
Method: i) In vitro mouse splenic lymphocyte growth promoting effects of the present compounds
Experiment was performed with BDF1 female mice (6 weeks old) purchased from NIPPON SLC K.K. Spleens were removed from mice, and spleen cells were brayed with slide glasses and hemolized with NH4 Cl. 2×10^6cells/ml of the spleen cells which had been hemolized were suspended in 10% FCS RPMI 1640. The cell suspension (100 μl/well) and a vehicle or sample (10 μl/well) which was prepared so as to have a final level shown in Table 3 were added into wells of a round-bottomed 96 well plate, and cultured under the condition of 5% CO2 at 37° C. for 2 days. 0.5 μCi/well of ^3 H-thymidine (^3 H-TdR) was added. After 6 hours, the cells were harvested, and the amount of ^3 H-TdR uptaken into nucleus was measured by a liquid scintillation counter. The ratio (%) of the uptake of ^3 H-TdR in the sample group to that in the vehicle group was calculated and used as the in vitro mouse splenic lymphocyte-proliferation-stimulating rate.

lethally irradiated mice = test: Radioprotective effect: life-span prolongation of lethally irradiated mice; type: in vivo, mouse (BDF1 female); settings: 0.1 mg/kg i.v. days 0, 4, 8, 9 Gy X-ray, groups of 10
Method: Life-span-prolonging effects of the present compounds on lethally irradiated mice.
Experiment was performed with BDF1 female mice (6 weeks old) purchased from NIPPON SLC K.K., which were divided into groups consisting of 10 animals. Mice were irradiated generally with 9 Gy of X-ray with an X-ray generating apparatus, Hitachi, MBR-1520R (radiation day: day 0). Samples at a dose of 0.1 mg/kg were administered into tail vein on days 0, 4 and 8 in order to observe the mortality of the animals for 40 days.
In the table, two experiments are separated by the broken line.

## CCCCCCCCCCCCCCCCCCCCCC[C@@H](O)C(=O)N[C@@H](CO[C@H]1O[C@H](CO)[C@H](O)[C@H](O[C@H]2O[C@H](CO)[C@H](O)[C@H](O)[C@H]2NC(C)=O)[C@H]1O[C@H]1O[C@H](CO)[C@@H](O)[C@H](O)[C@H]1O)[C@H](O)[C@H](O)CCCCCCCCCCCC(C)C [Compound 3, O-(N-acetyl-2-amino-2-deoxy-α-D-galactopyranosyl)-(1→3)-O-[α-D-glucopyranosyl-(1→2)]-O-α-D-galactopyranosyl-(1→1)-(2S,3S,4R)-2-amino-N-[(R)-2-hydroxytetracosanoyl]-16-methyl-1,3,4-heptadecanetriol]
[1]
  Survival days ave. ± s. d.: 15.0 ± 0 days
  T/C (%): 117%
B16 mouse melanoma cells
  Maximum tumor growth inhibiting rate, TGIR (%): 66.8%
Mouse bone marrow cells; 10^-1 μg/ml
  Uptake of 3H-TdR (% of control), bone marrow cells: 314 % of control
Mouse bone marrow cells; 10^-2 μg/ml
  Uptake of 3H-TdR (% of control), bone marrow cells: 138 % of control
[2]; 1 × 10^0 μg/ml
  MLR activating rate (%): 210%
[2]; 1 × 10^-1 μg/ml
  MLR activating rate (%): 138%
Mouse splenic lymphocyte; 10^0 μg/ml
  Uptake of 3H-TdR (% of control), splenic lymphocytes: 815 % of control
Mouse splenic lymphocyte; 10^-1 μg/ml
  Uptake of 3H-TdR (% of control), splenic lymphocytes: 704 % of control
Mouse splenic lymphocyte; 10^-2 μg/ml
  Uptake of 3H-TdR (% of control), splenic lymphocytes: 397 % of control
Mouse splenic lymphocyte; 10^-3 μg/ml
  Uptake of 3H-TdR (% of control), splenic lymphocytes: 258 % of control
Lethally irradiated mice; day 10
  Number of surviving mice: 10 mice
Lethally irradiated mice; day 15, 0.1 mg/kg
  Number of surviving mice: 6 mice
Lethally irradiated mice; day 20, 0.1 mg/kg
  Number of surviving mice: 5 mice
Lethally irradiated mice; day 25, 0.1 mg/kg
  Number of surviving mice: 5 mice
Lethally irradiated mice; day 30, 0.1 mg/kg
  Number of surviving mice: 5 mice
Lethally irradiated mice; day 35, 0.1 mg/kg
  Number of surviving mice: 5 mice
Lethally irradiated mice; day 40, 0.1 mg/kg
  Number of surviving mice: 5 mice

## CCCCCCCCCCCCCCCCCCCCCC[C@@H](O)C(=O)N[C@@H](CO[C@H]1O[C@H](CO)[C@H](O)[C@H](O[C@H]2O[C@H](CO)[C@H](O)[C@H](O)[C@H]2NC(C)=O)[C@H]1O[C@H]1O[C@H](CO)[C@@H](O)[C@H](O)[C@H]1O)[C@H](O)[C@H](O)CCCCCCCCCCCC(C)C [Compound 5, O-(N-acetyl-2-amino-2-deoxy-α-D-galactopyranosyl)-(1→3)-O-[α-D-glucopyranosyl-(1→2)]-O-α-D-galactopyranosyl-(1→1)-(2S,3S,4R)-2-amino-N-[(R)-2-hydroxytetracosanoyl]-16-methyl-1,3,4-heptadecanetriol]
[1]
  Survival days ave. ± s. d.: 15.2 ± 1.1 days
  T/C (%): 119%
B16 mouse melanoma cells
  Maximum tumor growth inhibiting rate, TGIR (%): 86.8%
Mouse bone marrow cells; 10^-1 μg/ml
  Uptake of 3H-TdR (% of control), bone marrow cells: 330 % of control
Mouse bone marrow cells; 10^-2 μg/ml
  Uptake of 3H-TdR (% of control), bone marrow cells: 283 % of control
[2]; 1 × 10^0 μg/ml
  MLR activating rate (%): 189%
[2]; 1 × 10^-1 μg/ml
  MLR activating rate (%): 176%
Mouse splenic lymphocyte; 10^0 μg/ml
  Uptake of 3H-TdR (% of control), splenic lymphocytes: 889 % of control
Mouse splenic lymphocyte; 10^-1 μg/ml
  Uptake of 3H-TdR (% of control), splenic lymphocytes: 764 % of control
Mouse splenic lymphocyte; 10^-2 μg/ml
  Uptake of 3H-TdR (% of control), splenic lymphocytes: 612 % of control
Mouse splenic lymphocyte; 10^-3 μg/ml
  Uptake of 3H-TdR (% of control), splenic lymphocytes: 592 % of control
Lethally irradiated mice; day 10
  Number of surviving mice: 10 mice
Lethally irradiated mice; day 15, 0.1 mg/kg
  Number of surviving mice: 8 mice
Lethally irradiated mice; day 20, 0.1 mg/kg
  Number of surviving mice: 7 mice
Lethally irradiated mice; day 25, 0.1 mg/kg
  Number of surviving mice: 7 mice
Lethally irradiated mice; day 30, 0.1 mg/kg
  Number of surviving mice: 7 mice
Lethally irradiated mice; day 35, 0.1 mg/kg
  Number of surviving mice: 7 mice
Lethally irradiated mice; day 40, 0.1 mg/kg
  Number of surviving mice: 7 mice

## CCCCCCCCCCCCCCCCCCCCCC[C@@H](O)C(=O)N[C@@H](CO[C@H]1O[C@H](CO)[C@H](O)[C@H](O[C@H]2O[C@H](CO)[C@H](O)[C@H](O)[C@H]2NC(C)=O)[C@H]1O[C@H]1O[C@H](CO)[C@@H](O)[C@H](O)[C@H]1O)[C@H](O)[C@H](O)CCCCCCCCCCCCCC [Compound 6, O-(N-acetyl-2-amino-2-deoxy-α-D-galactopyranosyl)-(1→3)-O-[α-D-glucopyranosyl-(1→2)]-O-α-D-galactopyranosyl-(1→1)-(2S,3S,4R)-2-amino-N-[(R)-2-hydroxytetracosanoyl]-1,3,4-octadecanetriol]
[1]
  Survival days ave. ± s. d.: 15.8 ± 1.1 days
  T/C (%): 123%
B16 mouse melanoma cells
  Maximum tumor growth inhibiting rate, TGIR (%): 91.2%
Mouse bone marrow cells; 10^-1 μg/ml
  Uptake of 3H-TdR (% of control), bone marrow cells: 431 % of control
Mouse bone marrow cells; 10^-2 μg/ml
  Uptake of 3H-TdR (% of control), bone marrow cells: 142 % of control
[2]; 1 × 10^0 μg/ml
  MLR activating rate (%): 228%
[2]; 1 × 10^-1 μg/ml
  MLR activating rate (%): 194%
Mouse splenic lymphocyte; 10^0 μg/ml
  Uptake of 3H-TdR (% of control), splenic lymphocytes: 883 % of control
Mouse splenic lymphocyte; 10^-1 μg/ml
  Uptake of 3H-TdR (% of control), splenic lymphocytes: 979 % of control
Mouse splenic lymphocyte; 10^-2 μg/ml
  Uptake of 3H-TdR (% of control), splenic lymphocytes: 649 % of control
Mouse splenic lymphocyte; 10^-3 μg/ml
  Uptake of 3H-TdR (% of control), splenic lymphocytes: 543 % of control
Lethally irradiated mice; day 10, 0.1 mg/kg
  Number of surviving mice: 10 mice
Lethally irradiated mice; day 15, 0.1 mg/kg
  Number of surviving mice: 10 mice
Lethally irradiated mice; day 20, 0.1 mg/kg
  Number of surviving mice: 8 mice
Lethally irradiated mice; day 25, 0.1 mg/kg
  Number of surviving mice: 8 mice
Lethally irradiated mice; day 30, 0.1 mg/kg
  Number of surviving mice: 8 mice
Lethally irradiated mice; day 35, 0.1 mg/kg
  Number of surviving mice: 8 mice
Lethally irradiated mice; day 40, 0.1 mg/kg
  Number of surviving mice: 8 mice

## CCCCCCCCCCCCCCCCCCCCCC[C@@H](O)C(=O)N[C@@H](CO[C@H]1O[C@H](CO)[C@H](O)[C@H](O[C@H]2O[C@H](CO)[C@H](O)[C@H](O)[C@H]2NC(C)=O)[C@H]1O[C@H]1O[C@H](CO)[C@@H](O)[C@H](O)[C@H]1O)[C@H](O)[C@H](O)CCCCCCCCCCCC(C)C [Compound 7, O-(N-acetyl-2-amino-2-deoxy-α-D-galactopyranosyl)-(1→3)-O-[α-D-glucopyranosyl-(1→2)]-O-α-D-galactopyranosyl-(1→1)-(2S,3S,4R)-2-amino-N-[(R)-2-hydroxytetracosanoyl]-16-methyl-1,3,4-heptadecanetriol]
[1]
  Survival days ave. ± s. d.: 15.8 ± 0.9 days
  T/C (%): 123%
B16 mouse melanoma cells
  Maximum tumor growth inhibiting rate, TGIR (%): 78.1%
Mouse bone marrow cells; 10^-1 μg/ml
  Uptake of 3H-TdR (% of control), bone marrow cells: 451 % of control
Mouse bone marrow cells; 10^-2 μg/ml
  Uptake of 3H-TdR (% of control), bone marrow cells: 478 % of control
[2]; 1 × 10^0 μg/ml
  MLR activating rate (%): 234%
[2]; 1 × 10^-1 μg/ml
  MLR activating rate (%): 195%
Mouse splenic lymphocyte; 10^0 μg/ml
  Uptake of 3H-TdR (% of control), splenic lymphocytes: 927 % of control
Mouse splenic lymphocyte; 10^-2 μg/ml
  Uptake of 3H-TdR (% of control), splenic lymphocytes: 705 % of control
Mouse splenic lymphocyte; 10^-3 μg/ml
  Uptake of 3H-TdR (% of control), splenic lymphocytes: 593 % of control
Lethally irradiated mice; day 10
  Number of surviving mice: 10 mice
Lethally irradiated mice; day 15, 0.1 mg/kg
  Number of surviving mice: 8 mice
Lethally irradiated mice; day 20, 0.1 mg/kg
  Number of surviving mice: 6 mice
Lethally irradiated mice; day 25, 0.1 mg/kg
  Number of surviving mice: 3 mice
Lethally irradiated mice; day 30, 0.1 mg/kg
  Number of surviving mice: 3 mice
Lethally irradiated mice; day 35, 0.1 mg/kg
  Number of surviving mice: 3 mice
Lethally irradiated mice; day 40, 0.1 mg/kg
  Number of surviving mice: 3 mice
